Experimental data as given in paper PMC9524151, “Peptides derived from hookworm anti-inflammatory proteins suppress inducible colitis in mice and inflammatory cytokine production by human cells” (Frontiers in Medicine, 2022).
Ends that are not written are not given here.

How the values were obtained:
[1] = in vitro; conditions: male, human, human serum
[2] = 100% human serum, 37°C, RP-HPLC at 214 nm, triplicate; for relative rate of degradation in human serum over 24 h: 0, 3, 8, 24 h
[3] = test system: TNBS-induced colitis; experiment: TNBS colitis model, oral administration; conditions: oral 5 mg/kg; compared with vehicle treated mice

SQKEKDLLKE [ES2-10]
remaining at 4 h, 20 μM [1]: < 10%

TPEEHPLLMDLMGDPKKAEE [AIP2-20D6P]
relative rate of degradation in human serum over 24 h [2]: degraded slower than AIP1-13 and ES2-10 but was less stable than AIP2-20

TPEEHDLLMDLMGDPKKAEE [AIP2-20]
relative rate of degradation in human serum over 24 h [2]: degraded slower than AIP1-13 and ES2-10
detection of peptide in human serum after 24 h [2]: could still be detected after 24 h
remaining at 8 h, 20 μM [1]: > 50%

PSKEKADLGKYKA [AIP1-13]
remaining at 4 h, 20 μM [1]: < 10%

O=C(O)c1cc(/N=N/c2ccc(S(=O)(=O)Nc3ccccn3)cc2)ccc1O [sulfasalazine]
colon length after oral administration [3]: Neither ES2-10 nor sulfasalazine were distinct from the vehicle treated mice
